Measured values taken from PMC8879119, “α-Glucosidase Inhibitory Activity and Anti-Adipogenic Effect of Compounds from Dendrobium delacourii” (Molecules, 2022).
Where two headings read alike, the source gives them in different places.

Assays:
3T3-L1 cells [1] = assay: cell death detection by Hoechst33342/propidium iodide costaining; format: cell-based; settings: 20 µM, 48 h
Protocol: The cytotoxicity of D. delacourii extracts was confirmed via cell death detection using costaining of Hoechst33342 and propidium iodide. After 48 h incubation with indicated treatment, the cells were further incubated with nuclear staining solution containing 2 μg/mL of Hoechst33342 and 1 μg/mL of propidium iodide for 30 min. The mode of cell death was observed under a fluorescence microscope (Olympus IX51 with DP70, Olympus Corp., Shinjuku-ku, Tokyo, Japan).

3T3-L1 cells [2] = assay: adipocyte differentiation / lipid accumulation by oil red O staining; format: cell-based, Mouse; settings: for IC50: Mus musculus, 3T3-L1, 0–50 µM, oil red O staining, 3T3-L1 cells; for reduction in oil red O staining: differentiated 3T3-L1 cells
Protocol: Mouse embryonic preadipocyte 3T3-L1 cells were cultured in DMEM containing 10% FBS, 100 units/mL of penicillin/streptomycin, and 2 mmol/L of L-glutamine under humidified conditions of 5% CO2 at 37 °C until 70–80% confluence was reached. For differentiation into adipocyte, preadipocyte 3T3-L1 cells were incubated with differentiation media composed of 10% FBS, 0.5 mM isobutylmethylxanthine, 1 μM dexamethasone, and 5 µg/mL insulin in DMEM with or without test compound for 2 days. Then, the differentiation media was replaced with culture media containing 5 µg/mL of insulin. After further incubation for 2 days, the cells were maintained in complete DMEM, which was changed every 2 days until adipocytes containing lipid droplets were observed under microscope.
The lipid droplets presenting in differentiated adipocytes were detected via oil red O staining. After the differentiation process, 3T3-L1 cells were fixed with 10% formalin for 45 min and further incubated with oil red O solution at room temperature for 1 h. After washing with 60% isopropanol for three times, oil red O-stained cells were captured using a Nikon Ts2 inverted optical microscope (Tokyo, Japan). For quantification, cellular oil red O was extracted using absolute isopropanol for measurement of OD at 570 nm by microplate reader (Anthros, Durham, NC, USA). The percentage of oil red O staining was calculated relative to the total protein content determined by BCA assay.

3T3-L1 cells [3] = assay: MTT viability assay in preadipocytes; format: cell-based, Mouse; settings: 20 µM, 48 h
Protocol: To evaluate the effect of D. delacourii extracts on cell viability, 3T3-L1 preadipocytes were seeded into 96-well plates at density of 2 × 10^3 cells/well and allowed to attach overnight at 37 °C. Then, the cells were further cultured with extracts (5 μg/mL), compounds (20 μM), or left untreated for 48 h before adding of 0.45 mg/mL MTT solution to assess cell viability. After incubation for 3 h at 37 °C and kept from light, the optical density (OD) of the purple formazan product dissolved in DMSO was measured at 570 nm using a microplate reader (Anthros, Durham, NC, USA). The relative OD ratio of treated to non-treated cells was presented as percentage cell viability.

α-glucosidase [4] = target: T1, α-glucosidase (Saccharomyces cerevisiae, UniProt P53341); assay: biochemical
T1 construct: purchased Sigma-Aldrich (St. Louis, MO, USA)
Protocol: In this study, each compound was initially tested at 100 μg/mL.
(§1) Mass spectra were recorded on a Bruker micro TOF mass spectrometer (ESI-MS). NMR spectra were recorded on a Bruker Avance DPX-300FT-NMR spectrometer or a Bruker Avance III HD 500 NMR spectrometer. Vacuum-liquid column chromatography (VLC) and column chromatography (CC) were performed on silica gel 60 (Merck, Kieselgel 60, 70–320 mesh), silica gel 60 (Merck, Kieselgel 60, 230–400 mesh) (Darmstadt, Germany), and Sephadex LH-20 (25–100 μm, Pharmacia Fine Chemical Co. Ltd.) (Piscataway, NJ, USA). […] Mouse embryonic preadipocyte 3T3-L1 cells were acquired from the American Type Culture Collection (ATCC, Manassas, VA, USA). Dulbecco’s modified Eagle medium (DMEM), fetal bovine serum (FBS), penicillin/streptomycin, and L-glutamine were obtained from Gibco (Gaithersburg, MA, USA). Yeast alpha-glucosidase enzyme, p-nitrophenol-α-D-glucopyranoside, isobutylmethylxanthine, dexamethasone, MTT (methyl-thiazolyl-diphenyl-tetrazolium bromide), Hoechst33342, propidium iodide, dimethylsulfoxide (DMSO), and oil red O were purchased from Sigma-Aldrich (St. Louis, MO, USA). Insulin was obtained from Himedia (Mumbai, India). The radio-immunoprecipitation assay (RIPA) buffer, chemiluminescent substrates, and the bicinchoninic acid (BCA) protein assay kit were from Thermo Scientific (Rockford, IL, USA), and the nitrocellulose membranes were from Bio-Rad Laboratories (Hercules, CA, USA). All primary and secondary antibodies were purchased from Cell Signaling Technology (Danvers, MA, USA). Oxyresveratrol was provided by Prof. Kittisak Likhitwitayawuid.
The assay was based on the inhibition in the sample of α-glucosidase enzyme, which can release p-nitrophenol (PNP) from p-nitrophenyl-α-D-glucoside (PNPG) by hydrolysis. […] For IC50 determination, twofold serial dilution was performed for each sample. Each experiment was accomplished in triplicate. Data are expressed as mean ± SD.

α-glucosidase [5] = target: T1, α-glucosidase; assay: biochemical; format: biochemical; settings: for type of enzyme inhibition: Lineweaver–Burk plots; for Ki: from secondary plot of slopes versus inhibitor concentration, read-out: Ki (inhibitor constant)
Protocol: The experiment was performed by using Lineweaver–Burk plots of the reciprocal of velocity (1/V) against the reciprocal of substrate concentration (1/[S]) (Figure 2). […] A secondary plot of each compound was then constructed to evaluate the inhibition constant (Ki).
as §1
The kinetic study of enzyme inhibition was analyzed by the double reciprocal Lineweaver–Burk plot (1/V versus 1/[S]). […] The reaction was monitored every 5 min for a total time of 25 min and measured at 405 nm by a microplate reader. Each experiment was performed in triplicate. The Ki value was estimated by constructing a secondary plot which is plotted by the slopes of the double-reciprocal lines versus inhibitor concentration.

C/EBPα = assay: Western blot of C/EBPα in differentiating 3T3-L1 cells; format: cell-based, Mouse; settings: 20 µM, 38 h and 48 h, versus untreated control
Protocol: (§2) Adipogenesis involves a network of transcription factors that contribute to adipocyte differentiation and lipid accumulation. Although the adipogenic gene CCAAT-enhancer-binding protein beta (C/EBPβ) is expressed soon after exposure to the adipogenic inducers, the upregulation of PPARγ and C/EBPα is acquired after 36–48 h of the induction. In this regard, the translational level of PPARγ and C/EBPα was examined to elucidate the anti-adipogenic mechanism in preadipocyte 3T3-L1 cells cultured with 20 µM densifloral B (3) at both early (38 h) and late (48 h) stage. Western blot analysis indicated the prolong expression of PPARγ and C/EBPα, the adipogenic transcription factors, in 3T3-L1 cells from early until late stage of adipogenic process. […]
(§3) After the indicated treatment, 3T3-L1 cells were washed with phosphate-buffered saline (PBS, pH 7.4), then the cell membranes were broken using RIPA buffer supplemented with a protease inhibitor cocktail. After incubation on ice for 45 min, the cell lysates were centrifuged at 12,000 rpm at 4 °C for 15 min to collect the clear supernatant containing cellular protein, which was measured for total protein content using a BCA assay kit. […] The reactive protein signals exposed with chemiluminescent substrates were captured and quantified using Chemiluminescent ImageQuant LAS 4000 (GE Healthcare Bio-Sciences AB, Björkgatan, Uppsala, Sweden).

p-AMPKβ1 = assay: Western blot of p-AMPKβ1 in differentiating 3T3-L1 cells; format: cell-based, Mouse; settings: 20 µM, 38 h and 48 h
Text: (§4) Recent reports indicate that the downregulation of PPARγ and C/EBPα are correlated with the activation of AMPKα/β and ACC [43]. […] The increased expression level of p-ACC/ACC (Figure 5b), p-AMPKα/AMPKα (Figure 5c), and p-AMPKβ1/AMPKβ1/2 (Figure 5f) was correlated with suppression of PPARγ and C/EBPα protein expression (Figure 4e) as well as lipid accumulation in differentiated 3T3-L1 cells (Figure 4a). The results presented in this study correspond with the evidence of the stimulation of AMPK and ACC protein being associated with the inhibition of 3T3-L1 adipocyte differentiation.
as §3, with “kit. The total protein (30 µg) from each sample was loaded and separated onto 10% sodium dodecyl sulfate-polyacrylamide gel electrophoresis (SDS-PAGE).” for “kit.”

p-ACC = assay: Western blot of p-ACC in differentiating 3T3-L1 cells; format: cell-based, Mouse; settings: 20 µM, 38 h and 48 h
Text: as §4
as §3, with “kit. The total protein (30 µg) from each sample was loaded and separated onto 10% sodium dodecyl sulfate-polyacrylamide gel electrophoresis (SDS-PAGE).” for “kit.”

p-Akt = assay: Western blot of p-Akt in differentiating 3T3-L1 cells; format: cell-based, Mouse; settings: 20 µM, 38–48 h
Text: as §4
as §3, with “kit. The total protein (30 µg) from each sample was loaded and separated onto 10% sodium dodecyl sulfate-polyacrylamide gel electrophoresis (SDS-PAGE).” for “kit.”

p-GSK3β/GSK3β = assay: Western blot of p-GSK3β/GSK3β in differentiating 3T3-L1 cells; format: cell-based, Mouse; settings: 20 µM, 38–48 h
Text: Due to the expression of adipogenic transcription factors also modulated via Akt/GSK3β [46, 47, 48], the alteration of the p-GSK3β/GSK3β level was additionally examined in densifloral B-treated 3T3-L1 cells. The phosphorylation by p-Akt results in the inactivation of the GSK3β degradation complex following the initiation of targeted gene expression.
as §3, with “kit. The total protein (30 µg) from each sample was loaded and separated onto 10% sodium dodecyl sulfate-polyacrylamide gel electrophoresis (SDS-PAGE).” for “kit.”

PPARγ = assay: Western blot of PPARγ in differentiating 3T3-L1 cells; format: cell-based, Mouse; settings: 20 µM, 38 h and 48 h, versus untreated control
Protocol: as §2, §3

p-AMPKα = assay: Western blot of p-AMPKα in differentiating 3T3-L1 cells; format: cell-based, Mouse; settings: 20 µM, 38 h and 48 h
Text: as §4
as §3, with “kit. The total protein (30 µg) from each sample was loaded and separated onto 10% sodium dodecyl sulfate-polyacrylamide gel electrophoresis (SDS-PAGE).” for “kit.”

[6] = read-out: α-Glucosidase inhibitory activity IC50
[7] = inhibitor dose 12 μM, substrate 0.25-2.0 mM

T1 sequence (P53341 whole entry): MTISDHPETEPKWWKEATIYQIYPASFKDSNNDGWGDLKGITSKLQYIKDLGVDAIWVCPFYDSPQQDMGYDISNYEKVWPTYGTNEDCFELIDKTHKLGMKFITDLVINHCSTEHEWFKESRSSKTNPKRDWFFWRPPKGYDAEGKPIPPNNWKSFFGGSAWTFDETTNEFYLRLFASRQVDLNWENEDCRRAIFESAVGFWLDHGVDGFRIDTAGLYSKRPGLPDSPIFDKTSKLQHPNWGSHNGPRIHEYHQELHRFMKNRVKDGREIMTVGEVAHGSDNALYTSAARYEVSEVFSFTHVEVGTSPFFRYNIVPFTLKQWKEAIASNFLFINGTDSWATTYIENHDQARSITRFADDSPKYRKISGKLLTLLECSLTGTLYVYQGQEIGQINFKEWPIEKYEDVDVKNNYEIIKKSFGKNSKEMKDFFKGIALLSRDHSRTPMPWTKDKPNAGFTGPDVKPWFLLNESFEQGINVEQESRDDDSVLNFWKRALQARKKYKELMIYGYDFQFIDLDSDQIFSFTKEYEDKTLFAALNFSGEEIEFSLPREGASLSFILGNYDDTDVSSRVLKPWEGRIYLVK

Structure (SMILES): Oc1cc(O)cc(/C=C/c2ccc(O)cc2O)c1 [oxyresveratrol, reference compound]
- cell death (3T3-L1 cells [1]): no change
- IC50 (3T3-L1 cells [2]): 21.1 ± 1.5 µM
- oil red O staining percentage compared with control (in words) (3T3-L1 cells [2]; at 20 µM): lower oil red O staining percentage
- viability / cytotoxicity in 3T3-L1 cells (3T3-L1 cells [3]): no change

Structure (SMILES): COc1cc(O)c2c(c1)CCc1cc(Oc3c(OC)cc(O)c4c3CCc3cc(O)ccc3-4)ccc1-2 [Phoyunnanin E (10), phoyunnanin E]
- IC50 (α-glucosidase [4]; [6]): 8.9 ± 0.8 µM
- type of enzyme inhibition (α-glucosidase [5]): non-competitive
- Ki (α-glucosidase [5]): 5.89 µM
- Vmax (α-glucosidase [5]; [7]): 0.049 ∆OD/min
- Vmax (α-glucosidase [5]; inhibitor dose 22 μM, substrate 0.25-2.0 mM): 0.024 ∆OD/min

Structure (SMILES): COc1cc(O)c2c(c1-c1c(OC)cc(O)c3c1CCc1cc(O)ccc1-3)CCc1cc(O)ccc1-2 [4,4′,7,7′-tetrahydroxy-2,2′-dimethoxy-9,9′,10,10′-tetrahydro-1,1′-biphenanthrene]
- IC50 (α-glucosidase [4]): 18.4 ± 3.4 µM

Structure (SMILES): COC1=CC(=O)C2=C(CCc3cc(O)ccc32)C1=O [Ephemeranthoquinone (2), ephemeranthoquinone]
- reduction in oil red O staining (3T3-L1 cells [2]; at 20 µM): approximately 64.7%
- viability / cytotoxicity in 3T3-L1 cells (3T3-L1 cells [3]): significantly decreased viability

Structure (SMILES): COc1cc(O)c2c(c1)CCc1cc(O)ccc1-2 [Lusianthridin (8), lusianthridin]
- IC50 (α-glucosidase [4]; [6]): 195 ± 9.6 µM

Structure (SMILES): C[C@H]1O[C@H](O[C@H]2[C@H](O)[C@@H](O)[C@@H](O[C@H]3[C@H](O)[C@@H](O)C(O)O[C@@H]3CO)O[C@@H]2CO)[C@H](O)[C@@H](O)[C@@H]1N[C@H]1C=C(CO)[C@@H](O)[C@H](O)[C@H]1O (some centres unmarked) [Acarbose, acarbose, reference compound]
- type of enzyme inhibition (α-glucosidase [5]): competitive type of inhibition
- Km (α-glucosidase [5]; inhibitor dose 465 μM): 4.17 mM
- Vmax (α-glucosidase [5]; inhibitor dose 465 μM): 0.10 ∆OD/min
- Km (α-glucosidase [5]; inhibitor dose 930 μM): 6.47 mM
- Vmax (α-glucosidase [5]; inhibitor dose 930 μM): 0.11 ∆OD/min

Structure (SMILES): COc1cc(O)cc2ccc3cccc(O)c3c12 [Moscatin (4), moscatin]
- IC50 (α-glucosidase [4]; [6]): 390 ± 9.8 µM

Structure (SMILES): COC1=CC(=O)c2c(ccc3cc(O)ccc23)C1=O [Densifloral B (3), densifloral B]
- expression level of C/EBPα (C/EBPα): restrained
- IC50 (3T3-L1 cells [2]): 14.8 ± 1.6 µM
- reduction in oil red O staining (3T3-L1 cells [2]; at 20 µM): ~65.2%
- viability / cytotoxicity in 3T3-L1 cells (3T3-L1 cells [3]): no cytotoxicity
- phosphorylated AMPKβ1 (p-AMPKβ1) (p-AMPKβ1): upregulated
- phosphorylated ACC (p-ACC) (p-ACC): upregulated
- activated Akt (p-Akt) (p-Akt): suppressed
- p-GSK3β/GSK3β expression level (p-GSK3β/GSK3β): significantly lessened
- expression level of PPARγ (PPARγ): restrained
- phosphorylated AMPKα (p-AMPKα) (p-AMPKα): upregulated

Structure (SMILES): COc1cc(O)cc(CCc2ccc(O)c(OC)c2)c1 [Gigantol (6), gigantol]
- IC50 (α-glucosidase [4]; [6]): 191 ± 6.8 µM

Structure (SMILES): COc1cc(O)c2c(c1)CCc1cc(O)c(-c3c(OC)cc(O)c4c3CCc3cc(O)ccc3-4)cc1-2 [Phoyunnanin C (11), phoyunnanin C]
- IC50 (α-glucosidase [4]; [6]): 12.6 ± 0.9 µM
- type of enzyme inhibition (α-glucosidase [5]): non-competitive
- Ki (α-glucosidase [5]): 5.97 µM
- Vmax (α-glucosidase [5]; [7]): 0.049 ∆OD/min
- Vmax (α-glucosidase [5]; inhibitor dose 24 μM, substrate 0.25-2.0 mM): 0.023 ∆OD/min
